Source: patent US11964041B2, “Compositions comprising levan and use thereof” (GAN SHMUEL FOODS LTD., priority 2018, dated 2024)

Tests used:
Assay type in all cases: cell-based
human skin explants [1] = assay: Epidermal turnover rate by BrdU assay in human skin organ culture; conditions: hyaluronic acid 0.2% with vehicle
Method: (§1) The human skin organ culture was obtained from a healthy patient undergoing plastic surgery (person). The study was initiated at the day of surgery.
(§2) Fixed size skin explant pieces (0.64 cm^2) were cut from the skin tissue, using a designated press apparatus.
(§3) The skin pieces were prepared and maintained in air liquid interphase; the explants were laid in 6-well culture plates containing skin culture medium (Dulbecco Minimal Essential Medium (DMEM) supplemented with 100 U/ml penicillin and 100 μg/ml streptomycin), dermal side down in the medium and epidermis phasing up. The pieces were left to recover at 37° C. with 5% CO2 overnight. […]
(§4) The following control groups were also included in this study: Naïve group (Group 1), Vehicle group (mock treatment—hexose, Group 2), and positive control groups for viability and proliferation (10% SDS, Group 3 and 10 ng/ml EGF, Group 4, respectively). Hyaluronic acid was evaluated in this system (0.2%, Group 5). […]
The pieces were incubated at 37° C. with 5% CO2 under humidified atmosphere for 48 hr. […] The epidermal viability was evaluated by MTT, according to standard operating procedure (SOP). […] Concomitantly, the epidermal turnover rate was determined on the second set of test groups by BrdU assay according to the kit's manufacturer instructions. […]
Colorimetric evaluation of the turnover rate was recorded by Enzyme-Linked Immunosorbent Assay (ELISA) reader.

human skin explants [2] = assay: Epidermal viability by MTT in human skin organ culture; conditions: 10% SDS, positive control, 48 hr
Method: as §1, §2, §3, §4
The pieces were incubated at 37° C. with 5% CO2 under humidified atmosphere for 48 hr. […] The epidermal viability was evaluated by MTT, according to standard operating procedure (SOP). […] Concomitantly, the epidermal turnover rate was determined on the second set of test groups by BrdU assay according to the kit's manufacturer instructions.

[3] = tested on: Staphylococcus epidermidis; assay: Bacterial growth, minimal inhibition concentration (MIC) assay; conditions: Ampicillin 100 μg/ml, positive control
Method: The experiment was conducted in Staphylococcus epidermidis. Two Test Items were evaluated in this study; Levan and a Commercial reference (C.R.). The assay was carried out in triplicates. The in vitro activity of the Test items was evaluated by minimal inhibition concentration (MIC) assay. This was measured spectrometrically. The increase bacteria number versus time of incubation w/o or with increasing concentrations of the Test items was plotted. Streak plate isolation technique was performed to isolate a single homogenous colony, according to SOP. One colony of each bacterial strain was inoculated from agar plate into U-shape falcon tube at a final volume of 4 ml in BHI liquid broth. Cultures were incubated in a bacterial incubator-shaker at 37° C. with shaking at 250 rpm overnight. The cultures were diluted and grown to mid-log phase (O.D. Approx. 0.5; 600 nm). The exact O.D. was recorded [0.506]. Dose response analysis of six concentrations for each Test Item was performed in the bacteria as described in Table 7. The following control groups were included in this study: Naïve group (Group 1), Vehicle group (mock treatment—hexose, Group 2) and positive control groups (Ampicillin (100 μg/ml), Group 3). […] The absorbance was recorded at 600 nm. The absorbance of the blank control was subtracted from all measurements (0.107).

Question: Which “effectiveness compared with the disclosed levan-based composition” value (human skin explants [1]) does the source give for Hyaluronic acid here?
Answer: Its value is “less effective”.

Question: For `CCCCCCCCCCCCOS(=O)(=O)[O-].[Na+]` [SDS], which “skin viability (MTT)” value (human skin explants [2]) is on record?
Answer: The value was “reduced skin viability”.

Question: With `CC1(C)S[C@@H]2[C@H](NC(=O)[C@H](N)c3ccccc3)C(=O)N2[C@H]1C(=O)O` [Ampicillin] as the compound, how does the “bacterial growth (O.D. 600 nm)” value [3] read?
Answer: Its value is “effectively blocked the bacterial growth”.
